Data set [1] is described as follows: Drug detection in cryosections of brain tissues of tumor-bearing mice (immunohistochemistry, confocal). The conditions noted are these: drug fluorescence.
Method: Immunohistochemistry: For histologic analysis, brain tissues from control and drug-treated tumor-bearing mice were harvested, snap frozen in optimal cutting temperature (OCT) compound and stored at −80° C. Cryostat sections were placed on slides and fixed in zinc-buffered formalin. Slides were blocked with 5% goat serum in 1% BSA followed by overnight incubation with primary antibodies against CD31 (102402, Biolegend, San Diego, Calif.), Ki-67 (ab156956, Abcam, Cambridge, Mass.), Vimentin (ab92547, Abcam), cleaved-Caspase-3 (CP229B, Biocare Medical), and GFAP (NB300-141, Novus Biologicals, Littleton, Colo.). Slides were then incubated with primary antibody source-specific secondary antibodies conjugated to Alexa Fluor 488 or 635 and DAN as a nuclear counterstain. The detection fluorophores used were limited to those around the inherent fluorescence spectra of doxorubicin (λex=480 nm, λem=550-590 nm) (22876313) to avoid bleed-through and enable co-detection of the drug with respect to certain antigens. Epifluorescence photomicrographs were captured at 100× and 400× magnification using an FV1000 confocal microscope (Olympus of America, Center Valley, Pa.) equipped with multi-Argon, 405, 559, and 635 diodes. Quantitative analysis was performed with Slidebook software (Intelligent Imaging Innovations, Denver, Colo.).
Data set [2] is described as follows: Plasma and tissue distribution by HPLC in intracranial tumor-bearing mice. It is filed as in vivo. The protocol: (§1) HPLC System and Conditions: An Agilent 1100 Series HPLC System (Wilmington, Del., USA) having a scanning fluorescent detector with excitation and emission wavelengths set at 480 and 560 nm, respectively, was used. Agilent Chemstation software was used for data acquisition. Separation was achieved on a Waters Spherisorb ODS2 column (4 mm×250 mm, 5 μm) fitted with a guard cartridge (BDS-Hypersil-C18, 5 μM). Elution was performed with mobile phase containing 65% monosodium phosphate, pH 2.2, and 35% acetonitrile. A constant flow rate of 1.25 ml/min was used for the separation. The column was set to 28° C. and the injection volume was 25 μl.
Sample preparation: Aldoxorubicin, 24 mg/kg/inj (75% of the MTD), was administered in intracranial GBM tumor-bearing mice through tail vein injection, and after 4, 8, 16, and 24 h after injection, mice (3 animals at each time point) were euthanized by CO2 gas. Blood samples were collected by heart puncture in heparinized tubes, and centrifuged for plasma separation. Immediately after blood sampling, organs (brain, heart, kidney liver and lung) were surgically removed. The plasma and tissues were stored at −80° C. until analysis.
Frozen samples were thawed at room temperature and homogenized in sterile saline using a PowerGen Model 125 homogenizer (Fisher Scientific) to obtain final tissue concentrations (w/v) of 150 mg/ml for the liver and brain; 125 mg/ml for the lung, heart and muscle; and 100 mg/ml for kidney. Perchloric acid (35%, v/v) was added to a 20 μl aliquot of plasma or tissue samples followed by 25 μl of mobile phase. The samples were vortexed followed by centrifugation at 10,000×g for 10 min. and 25 μl of the supernatant was applied to the HPLC column.

Data set [3] in a line: Aldoxorubicin retention in brain tumors and surrounding brain tissue by HPLC. Type of data set: in vivo, mice. The conditions noted are these: i.v. 24 mg/kg, 6 and 24 h after injection. The procedure: as §1, with “The HPLC system used was an” for “An”, “Series” for “Series HPLC System”, “equipped with” for “having”, “respectively.” for “respectively, was used.”, “comprised of” for “containing”, “65% 50 mM” for “65%”
Sample preparation: For quantification of aldoxorubicin in brain tissue and brain tumors, mice were euthanized by CO2 inhalation 6 and 24 h after aldoxorubicin injection (24 mg/kg/inj), brains were harvested and tumors were resected. The harvested tissues were stored at −80° C. until analysis.
Frozen samples were thawed at room temperature and homogenized in sterile saline using a PowerGen Model 125 homogenizer (Fisher Scientific) to obtain final tissue concentrations (w/v) of 150 mg/ml. Perchloric acid (35%, v/v) was then added to a […] aliquot followed by 25 μl of mobile phase. […] In the tissue samples analyzed, aldoxorubicin eluted with the retention time of doxorubicin.

Data set [4] in a line: Aldoxorubicin/doxorubicin detection in brain tumors by stereomicroscope epifluorescence. It is filed as in vivo, mice. To be noted: 24 h following the last injection; epifluorescence of whole brains. The protocol: Aldoxorubicin/doxorubicin detection in brain tumors: Tumor-bearing mice were given intravenous injections of aldoxorubicin or doxorubicin as described above in Example 1. Mice were euthanized 24 h following the last injection. Brains were harvested and imaged using an MVX10 stereomicroscope (Olympus of America) equipped for brightfield and epifluorescence with filters encompassing doxorubicin-specific wavelengths to visualize drug accumulation.

Data set [5] is described as follows: Maximum tolerated dose in mice. Type of data set: in vivo. To be noted: intravenous.
Data set [6] concerns U87-luc glioma cells. The data set is described as follows: Intracranial U87-luc glioblastoma xenograft in mice, Example 2 (bioluminescent imaging, survival). Type of data set: in vivo. The protocol: Female mice (6-8 weeks of age) were implanted intracranially with U87-luc subline with luciferase reporter gene to establish human glioblastoma tumors. Tumor growth was evaluated by bioluminescent imaging using D-luciferin substrate. 8 mice were treated with aldoxorubicin and 8 were treated with phosphate buffer saline (vehicle). Treatment started 9 days after implantation of the GBM cells. Aldoxorubicin or vehicle was administered i.v. once a week for three weeks (9, 16, and 23 days after cell implantation). The first two doses of aldoxorubicin were 75% and the third dose was 50% of the MTD of 32 mg/kg/injection in mice.

Data set [7] concerns U87-luc glioma cells. As to the kind of experiment: Intracranial U87-luc glioblastoma xenograft in mice, Example 1 (bioluminescent imaging, survival). Type of data set: in vivo. To be noted: for difference in tumor growth between 8 days and 22 days within the group: aldoxorubicin p>0.05, doxorubicin p<0.05; for survival time compared with vehicle-treated mice (Kaplan-Meier): result in words, aldoxorubicin also vs doxorubicin-treated group. The procedure: Intracranial implantation of U87-luc glioma cells in mice: A U87MG subline, U87-luc with a luciferase reporter gene was used for establishing intracranial human glioblastoma tumors. Female BALB/c (nu/nu) mice, 6-8 weeks of age, were anesthetized with a ketamine/xylazine cocktail solution. Animals were secured in a Harvard Apparatus stereotaxic head frame, a 1 cm midline scalp incision was made, and 5×10^5 cells in 5 μL serum-free DMEM were injected into the left striatum (coordinates: 2.5 mm lateral and 0.5 mm posterior to the bregma) through a burr hole in the skull using a 10 μl Hamilton syringe to deliver tumor cells to a 3.5 mm intraparenchymal depth. The burr hole in the skull was sealed with bone wax and the incision closed using wound glue. Tumor growth was evaluated by bioluminescent imaging.
Aldoxorubicin treatment of mice: The study consisted of 8 vehicle-treated control mice (group C), 8 doxorubicin-treated mice (group D), and 8 aldoxorubicin-treated mice (group A). Treatment was initiated twelve days after intracranial implantation of glioblastoma multiforme (GBM) cells. Vehicle (10 mM sodium phosphate, 5% D-(+)-glucose, pH 6.4) or aldoxorubicin was administered intravenously for a total of six injections (i.e., 12, 19, 26, 42, 50, and 56, days after cell implantation). All the doses were ˜75% of the maximum tolerated dose (MTD) of 32 mg/kg/inj in mice except that the dose given after 50 days of cell implantation was 50% of the MTD. Doxorubicin was administered intravenously for a total of two injections (i.e., 12 and 19 days after cell implantation) with ˜75% of the MTD of 8 mg/kg/inj. Both the drugs and the vehicle were administered using an injection volume of 0.15 ml.
In vivo imaging of intracranial tumors: Intracranial tumor growth was quantified by bioluminescent imaging using an in vivo imaging system (Xenogen, Palo Alto, Calif.). All mice were given an IP injection of 100 μl of 30 mg/ml D-luciferin (PerkinElmer) suspended in DPBS 10 minutes before imaging to provide a substrate for the luciferase enzyme. Prior to imaging, mice were anesthetized with inhalation of isoflurane gas. Images were captured using the Xenogen Ivis 200 imaging system and quantified with Living Image 4.1 software from Xenogen for a region of interest that encompassed the head of the mouse. Image intensities were expressed as photons/sec/cm^2/sr.
Statistical Analysis: The log-rank test was used to create Kaplan-Meier survival curves to compare survival between control and drug-treated mice using the Statistical Analysis Software of SAS Institute, Inc., Cary, N.C. Differences between groups were assessed using the unpaired Student's t test. AR values are shown as the mean±standard deviation. A p value≤0.05 was considered statistically significant.

Data set [8] deals with Glioblastoma cell lines. The conditions noted are these: literature; cited from earlier work.
For data set [9] the following is noted: literature; cited from earlier work.
The target in data set [10] is P-glycoprotein efflux pumps (Homo sapiens, UniProt P08183). To be noted: literature; cited from earlier work.
P-glycoprotein efflux pumps, sequence (P08183 whole entry): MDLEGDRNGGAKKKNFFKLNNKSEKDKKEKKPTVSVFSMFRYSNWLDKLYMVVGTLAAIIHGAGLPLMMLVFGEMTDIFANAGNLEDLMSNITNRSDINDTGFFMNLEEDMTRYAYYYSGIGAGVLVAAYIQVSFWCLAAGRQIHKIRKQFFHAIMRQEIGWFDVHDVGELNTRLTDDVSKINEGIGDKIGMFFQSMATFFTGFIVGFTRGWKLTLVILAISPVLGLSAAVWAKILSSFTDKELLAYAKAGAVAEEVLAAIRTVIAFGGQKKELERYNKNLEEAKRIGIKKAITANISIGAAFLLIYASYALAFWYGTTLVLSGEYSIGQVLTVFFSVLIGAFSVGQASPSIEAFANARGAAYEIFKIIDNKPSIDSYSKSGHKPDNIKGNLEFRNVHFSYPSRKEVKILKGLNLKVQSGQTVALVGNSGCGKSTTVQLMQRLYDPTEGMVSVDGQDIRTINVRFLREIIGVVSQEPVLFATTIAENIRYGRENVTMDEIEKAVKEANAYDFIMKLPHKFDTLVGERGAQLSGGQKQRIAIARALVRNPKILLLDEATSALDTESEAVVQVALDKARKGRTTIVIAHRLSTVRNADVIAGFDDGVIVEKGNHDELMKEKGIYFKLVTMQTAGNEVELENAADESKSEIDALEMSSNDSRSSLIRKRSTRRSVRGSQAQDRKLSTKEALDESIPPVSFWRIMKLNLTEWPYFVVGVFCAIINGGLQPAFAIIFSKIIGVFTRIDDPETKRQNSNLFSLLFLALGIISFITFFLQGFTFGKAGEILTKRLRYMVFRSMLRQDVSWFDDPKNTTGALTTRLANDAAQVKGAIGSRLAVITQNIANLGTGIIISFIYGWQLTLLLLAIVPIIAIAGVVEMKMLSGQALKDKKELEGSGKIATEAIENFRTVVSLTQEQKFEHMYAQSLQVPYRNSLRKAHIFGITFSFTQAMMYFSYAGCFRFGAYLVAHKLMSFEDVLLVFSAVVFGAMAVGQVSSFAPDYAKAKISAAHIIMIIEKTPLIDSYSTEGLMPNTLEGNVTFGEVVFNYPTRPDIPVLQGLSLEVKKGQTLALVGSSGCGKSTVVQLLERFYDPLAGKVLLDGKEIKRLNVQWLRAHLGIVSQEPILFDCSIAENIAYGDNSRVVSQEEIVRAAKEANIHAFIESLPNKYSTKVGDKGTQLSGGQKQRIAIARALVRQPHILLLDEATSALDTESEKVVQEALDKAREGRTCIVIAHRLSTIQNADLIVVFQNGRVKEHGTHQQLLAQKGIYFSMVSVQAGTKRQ
The subject of data set [11] is glioblastoma growing in the brain. To be noted: literature; cited from earlier work.
[12] abbreviates: i.v. 24 mg/kg (~75% of the MTD).
[13] abbreviates: administered intravenously, intracranial human GBM tumors.
The mark [14] stands for this setting: 22 days after implantation, aldoxorubicin treatment for 2 weeks, radiance.

Entries after “also recorded” stand apart in the source; their conditions may differ.

Regarding `COc1cccc2c1C(=O)c1c(O)c3c(c(O)c1C2=O)C[C@@](O)(/C(CO)=N/NC(=O)CCCCCN1C(=O)C=CC1=O)C[C@@H]3OC1CC(N)C(O)C(C)O1.Cl` (some centres unmarked) [aldoxorubicin], the “accumulation in brain tumor and normal brain tissue” value in data set [1] is recorded as “accumulates in the brain tumor but not in normal brain tissue”. Moreover, the “levels in the brain over time” value in data set [2] (from 4 h to 24 h, total brain tissue of tumor-bearing mice) is on record as “remained almost same”. In data set [2] (setting [12]), the “plasma concentration relative to that in the brain” value was “more than 200 fold”; the “plasma concentration relative to the mean concentration in liver, heart, lung and kidney” value is given as “more than 20 fold”. In data set [2] (plasma and other organs except brain, i.v. 24 mg/kg (~75% of the MTD)), the “time of highest drug concentration” value stood at 4 h. Further, the “time to reach nearly 50% of its concentration” value in [2] (plasma and other tissues except the brain) is listed as 20 h. Besides, the “retention in tumor tissues relative to surrounding brain tissues” value in data set [3] is reported as 3- to 4 fold. Moreover, the “accumulation in glioblastoma tumors” value in [4] was “accumulates in glioblastoma tumors”. In [5], the “maximum tolerated dose (MTD)” value was determined as 32 mg/kg/inj. Further, the “mice with tumor regrowth” value in [6] (Day 29) is 2. The mice dead in [6] (Day 29, group of 8 mice) was found to be 1. The “other mice with tumor regrown” value in [6] (Day 33) was 4. In data set [6] (Day 33, group of 8 mice), this molecule displayed a mice dead of 3. For the same molecule, the overall antitumor result in data set [6] (setting [13]) was “induces tumor regression and increases survival”. Also, the “mice with detectable tumor” value in [6] (at 21 days, group of 8 mice) is 1. For the same molecule, the “survival compared with vehicle (Kaplan-Meier)” value in data set [6] (result in words) is reported as “survived longer”. In data set [7] (setting [14]), the “average tumor size relative to the control group” value amounted to 28% and the “average tumor size relative to the doxorubicin treatment group” value stood at 40%. In [7] (34 days, group of 8 mice), the “survival of animals 34 days after tumor implantation” value is listed as “remained alive”. For the same molecule, the overall antitumor result in data set [7] (setting [13]) is “induces tumor regression and significantly increases survival”. Besides, in [7] (after 41 days), the animals still alive result was “seven of the eight”. Also, in data set [7] (radiance), the “difference in tumor growth between 8 days and 22 days within the group” value was “no relative difference in tumor growth”. Besides, in [7], the “survival time compared with vehicle-treated mice (Kaplan-Meier)” value is on record as “increased survival times; also recorded: survived a longer time”.

On to `COc1cccc2c1C(=O)c1c(O)c3c(c(O)c1C2=O)C[C@@](O)(C(=O)CO)C[C@@H]3O[C@H]1C[C@H](N)[C@H](O)[C@H](C)O1` [doxorubicin, reference compound], for which the “accumulation in brain tumor and normal brain tissue” value in [1] was “not found in any appreciable amount in either the tumor or normal brain”. In [8], the “effect on glioblastoma cell lines” value was “driven to apoptosis following growth arrest”. For the same molecule, in data set [9], the “ability to cross the BBB” value is “lacks the ability to cross the BBB” and the “free concentration in glioma tissues” value is recorded as “below effective levels”. The “accumulation in glioblastoma tumors” value in data set [4] was “not doxorubicin accumulates”. The “maximum tolerated dose (MTD)” value in data set [5] amounted to 8 mg/kg/inj. For the same molecule, the “P-glycoprotein efflux pump substrate” value in data set [10] is recorded as “substrate of the P-glycoprotein efflux pumps”. For the same molecule, the “time after tumor implantation within which all animals died” value in data set [7] (group of 8 mice) was ≤ 34 days. The molecule further yielded an animals died in [7] (in 22 days, group of 8 mice) of 2. Besides, the “difference in tumor growth between 8 days and 22 days within the group” value in [7] (radiance) was “a relative difference in tumor growth”. Also, in data set [7], the “survival time compared with vehicle-treated mice (Kaplan-Meier)” value is on record as “no difference in the survival time; also recorded: no difference in the survival curves”. Moreover, the “effect on glioblastoma growing in the brain” value in [11] is given as “no effect”.

(Values after patent US10881678B2, “Cytotoxic agents for the treatment of cancer” (CytRx Corporation, priority 2013, dated 2021).)
